This is an account of results in ChEMBL document CHEMBL5724914, “Linking interpersonal differences in gut microbiota composition and drug biotransformation activity” (2024).

The nature of data set [1]: The drug is tested on Z-007 corresponding to rat gut metagenome with ENA study accession number: PRJEB37062 and ENA sample accession number: ERS12561807 for biotransformation under anaerobic condition. The drug concentrations were measured over 9 timepoints collected between 0 and 24 hours of incubation by liquid-chromatography-coupled mass spectrometry (LC–MS). The settings on record: 2 µM.

Data set [2] can be described thus: The drug is tested on WLS-098 corresponding to human gut metagenome with ENA study accession number: PRJEB37062 and ENA sample accession number: ERS12561754 for biotransformation under anaerobic condition. The drug concentrations were measured over 9 timepoints collected between 0 and 24 hours of incubation by liquid-chromatography-coupled mass spectrometry (LC–MS). As to conditions: 2 µM.

Data set [3] is described as follows: The drug is tested on Z-003 corresponding to pig gut metagenome with ENA study accession number: PRJEB37062 and ENA sample accession number: ERS12561803 for biotransformation under anaerobic condition. The drug concentrations were measured over 9 timepoints collected between 0 and 24 hours of incubation by liquid-chromatography-coupled mass spectrometry (LC–MS). As to conditions: 2 µM.

The conditions of data set [4]: human gut metagenome, 24 h, 2 µM.
Data set [5] can be described thus: The drug is tested on Z-028 corresponding to mouse gut metagenome with ENA study accession number: PRJEB37062 and ENA sample accession number: ERS12561827 for biotransformation under anaerobic condition. The drug concentrations were measured over 9 timepoints collected between 0 and 24 hours of incubation by liquid-chromatography-coupled mass spectrometry (LC–MS). The settings on record: 2 µM.

A short description of data set [6]: The drug is tested on Z-026 corresponding to metagenome with ENA study accession number: PRJEB37062 and ENA sample accession number: ERS12561825 for biotransformation under anaerobic condition. The drug concentrations were measured over 9 timepoints collected between 0 and 24 hours of incubation by liquid-chromatography-coupled mass spectrometry (LC–MS). As to conditions: 2 µM.

The conditions of data set [7]: human gut metagenome, 24 h, 2 µM. The source holds these as a separate data set.
Data set [8] can be described thus: The drug is tested on WLS-240 corresponding to human gut metagenome with ENA study accession number: PRJEB37062 and ENA sample accession number: ERS12561773 for biotransformation under anaerobic condition. The drug concentrations were measured over 9 timepoints collected between 0 and 24 hours of incubation by liquid-chromatography-coupled mass spectrometry (LC–MS). As to conditions: 2 µM.

Data set [9] in a line: The drug is tested on WLS-077 corresponding to human gut metagenome with ENA study accession number: PRJEB37062 and ENA sample accession number: ERS12561750 for biotransformation under anaerobic condition. The drug concentrations were measured over 9 timepoints collected between 0 and 24 hours of incubation by liquid-chromatography-coupled mass spectrometry (LC–MS). As to conditions: 2 µM.

A short description of data set [10]: The drug is tested on WLS-006 corresponding to human gut metagenome with ENA study accession number: PRJEB37062 and ENA sample accession number: ERS12561741 for biotransformation under anaerobic condition. The drug concentrations were measured over 9 timepoints collected between 0 and 24 hours of incubation by liquid-chromatography-coupled mass spectrometry (LC–MS). As to conditions: 2 µM.

A short description of data set [11]: The drug is tested on Z-018 corresponding to pig gut metagenome with ENA study accession number: PRJEB37062 and ENA sample accession number: ERS12561817 for biotransformation under anaerobic condition. The drug concentrations were measured over 9 timepoints collected between 0 and 24 hours of incubation by liquid-chromatography-coupled mass spectrometry (LC–MS). The settings on record: 2 µM.

The conditions of data set [12]: human gut metagenome, 24 h, 2 µM. This is another data set of the same source.
The conditions of data set [13]: human gut metagenome, 24 h, 2 µM. The source holds these as a separate data set.
The conditions of data set [14]: human gut metagenome, 24 h, 2 µM. This is another data set of the same source.
Data set [15] is described as follows: The drug is tested on Z-027 corresponding to metagenome with ENA study accession number: PRJEB37062 and ENA sample accession number: ERS12561826 for biotransformation under anaerobic condition. The drug concentrations were measured over 9 timepoints collected between 0 and 24 hours of incubation by liquid-chromatography-coupled mass spectrometry (LC–MS). As to conditions: 2 µM.

Data set [16] can be described thus: The drug is tested on WLS-170 corresponding to human gut metagenome with ENA study accession number: PRJEB37062 and ENA sample accession number: ERS12561762 for biotransformation under anaerobic condition. The drug concentrations were measured over 9 timepoints collected between 0 and 24 hours of incubation by liquid-chromatography-coupled mass spectrometry (LC–MS). As to conditions: 2 µM.

A short description of data set [17]: The drug is tested on Z-029 corresponding to rat gut metagenome with ENA study accession number: PRJEB37062 and ENA sample accession number: ERS12561828 for biotransformation under anaerobic condition. The drug concentrations were measured over 9 timepoints collected between 0 and 24 hours of incubation by liquid-chromatography-coupled mass spectrometry (LC–MS). As to conditions: 2 µM.

The conditions of data set [18]: human gut metagenome, 24 h, 2 µM. This is another data set of the same source.
The conditions of data set [19]: human gut metagenome, 24 h, 2 µM. This is another data set of the same source.
Data set [20] in a line: The drug is tested on WLS-310 corresponding to human gut metagenome with ENA study accession number: PRJEB37062 and ENA sample accession number: ERS12561785 for biotransformation under anaerobic condition. The drug concentrations were measured over 9 timepoints collected between 0 and 24 hours of incubation by liquid-chromatography-coupled mass spectrometry (LC–MS). The settings on record: 2 µM.
Also: call rule not given here.

Consider `Cc1ccnc2c1NC(=O)c1cccnc1N2C1CC1` [NEVIRAPINE], for which the “Bacterial Biotransformation” value in [1] is given as “Compound NOT metabolized”; in data set [2], “Compound metabolized”; in [3], “Compound NOT metabolized”; in data set [4], “Compound NOT metabolized”; in data set [5], “Compound NOT metabolized”; in [6], “Compound NOT metabolized”. The “Bacterial Biotransformation” value is given as “Compound metabolized” in [7]; “Compound metabolized” in data set [8]; “Compound NOT metabolized” in [9]; “Compound NOT metabolized” in [10]; “Compound NOT metabolized” in data set [11]; “Compound NOT metabolized” in [12]. Further, the “Bacterial Biotransformation” value was “Compound metabolized” in data set [13]; “Compound NOT metabolized” in [14]; “Compound NOT metabolized” in data set [15]; “Compound metabolized” in [16]; “Compound NOT metabolized” in data set [17]; “Compound metabolized” in data set [18]. For the same compound, the “Bacterial Biotransformation” value is “Compound NOT metabolized” in [19] and “Compound metabolized” in data set [20].
Turning to `COc1ccc2c(c1OC)C(=O)O[C@@H]2[C@H]1c2c(cc3c(c2OC)OCO3)CCN1C` [NOSCAPINE], the “Bacterial Biotransformation” value is listed as “Compound NOT metabolized” in [1]; “Compound metabolized” in data set [2]; “Compound metabolized” in data set [3]; “Compound NOT metabolized” in data set [4]; “Compound NOT metabolized” in data set [5]; “Compound NOT metabolized” in data set [6]. In addition, the “Bacterial Biotransformation” value is recorded as “Compound NOT metabolized” in data set [7]; “Compound metabolized” in data set [8]; “Compound metabolized” in [9]; “Compound metabolized” in [10]; “Compound metabolized” in [11]; “Compound NOT metabolized” in [12]. For the same compound, the “Bacterial Biotransformation” value in data set [13] was “Compound metabolized”; in data set [14], “Compound metabolized”; in data set [15] it was “Compound NOT metabolized”; in [16], “Compound metabolized”; in data set [17] it was “Compound NOT metabolized”; in [18], “Compound NOT metabolized”. In addition, the “Bacterial Biotransformation” value is listed as “Compound NOT metabolized” in data set [19] and “Compound metabolized” in [20].
Consider `CCCc1nc(C(C)(C)O)c(C(=O)OCc2oc(=O)oc2C)n1Cc1ccc(-c2ccccc2-c2nnn[nH]2)cc1` [OLMESARTAN MEDOXOMIL], for which the “Bacterial Biotransformation” value in data set [1] is given as “Compound metabolized”; in data set [2] it was “Compound NOT metabolized”; in data set [3], “Compound metabolized”; in [4], “Compound metabolized”; in data set [5] it was “Compound NOT metabolized”; in [6], “Compound NOT metabolized”. The “Bacterial Biotransformation” value was “Compound metabolized” in data set [7]; “Compound NOT metabolized” in data set [8]; “Compound metabolized” in data set [9]; “Compound metabolized” in data set [10]; “Compound metabolized” in data set [11]; “Compound NOT metabolized” in data set [12]. In addition, the “Bacterial Biotransformation” value in data set [13] is given as “Compound NOT metabolized”; in [14], “Compound metabolized”; in data set [15], “Compound NOT metabolized”; in data set [16], “Compound metabolized”; in [17], “Compound NOT metabolized”; in [18] it was “Compound metabolized”. Also, the “Bacterial Biotransformation” value in data set [19] and in [20] was “Compound metabolized” in each case.
With `CCN(CC)CC#CCOC(=O)C(O)(c1ccccc1)C1CCCCC1.Cl` (stereo not given) [OXYBUTYNIN CHLORIDE], the “Bacterial Biotransformation” value in data set [1] is “Compound NOT metabolized”; in [2] it was “Compound metabolized”; in data set [3], “Compound metabolized”; in [4] it was “Compound metabolized”; in data set [5], “Compound NOT metabolized”; in [6], “Compound NOT metabolized”. Further, the “Bacterial Biotransformation” value in data set [7] is reported as “Compound metabolized”; in data set [8], “Compound metabolized”; in data set [9], “Compound metabolized”; in data set [10] it was “Compound metabolized”; in data set [11] it was “Compound metabolized”; in data set [12], “Compound NOT metabolized”. Moreover, the “Bacterial Biotransformation” value in data set [13] is listed as “Compound metabolized”; in [14], “Compound metabolized”; in data set [15], “Compound NOT metabolized”; in [16] it was “Compound metabolized”; in data set [17] it was “Compound NOT metabolized”; in data set [18] it was “Compound metabolized”. In addition, the “Bacterial Biotransformation” value in data set [19] and in [20] was “Compound metabolized” each time.
In the case of `Fc1ccc([C@@H]2CCNC[C@H]2COc2ccc3c(c2)OCO3)cc1` [PAROXETINE], the “Bacterial Biotransformation” value in data set [1] is listed as “Compound NOT metabolized”; in data set [2], “Compound metabolized”; in data set [3], “Compound metabolized”; in data set [4], “Compound NOT metabolized”; in data set [5], “Compound NOT metabolized”; in data set [6] it was “Compound NOT metabolized”. Besides, the “Bacterial Biotransformation” value in data set [7] is recorded as “Compound metabolized”; in data set [8], “Compound metabolized”; in data set [9], “Compound NOT metabolized”; in [10] it was “Compound NOT metabolized”; in [11] it was “Compound NOT metabolized”; in [12] it was “Compound NOT metabolized”. For the same compound, the “Bacterial Biotransformation” value is listed as “Compound NOT metabolized” in data set [13]; “Compound metabolized” in data set [14]; “Compound NOT metabolized” in data set [15]; “Compound metabolized” in [16]; “Compound NOT metabolized” in data set [17]; “Compound metabolized” in [18]. The “Bacterial Biotransformation” value in [19] is “Compound NOT metabolized”; in [20], “Compound metabolized”.
